In brackets after ≈: the same amount, converted by molar mass. Read-outs that look alike come from different tables or passages of the source.
Assays:
Sprague-Dawley (SD) rats = assay: Hot plate test (analgesic activity); assay type: in vivo; conditions: ip, dose 15 mg/kg; for change in vivo at 15 mg/kg: Rattus norvegicus, hot plate test, rats, n.a. = inactive (p > 0.05)
Procedure: The hot plate test was conducted according to established guidelines on Sprague-Dawley (SD) rats (3 male and 3 female rodents per group). The compounds were intraperitoneally administered in the form of suspensions in 1% starch mucilage. Negative control group animals received vehicle only (1% starch mucilage). Diclofenac sodium (Hemofarm, Vršac, Serbia, 10 mg/kg in 1% starch mucilage solution) or metamizole sodium (PAO Biosynthesis, Sun Pharma, Penza, Russia, 15 mg/kg in 1% starch mucilage solution) were used as reference drugs. One and two hours after the injection, rats were placed on an electrically heated to 50 °C plate (Hot plate 60,200 series, TSE-systems, Bad Homburg, Germany) in a Plexiglas cylindrical restrainer (19 cm diameter × 30 cm). The nociceptive response time was measured by observing the appearance of rats’ movements (e.g., jumping, hind paw licking or shaking). Maximal cutoff time was set as 30 s regardless of the response in order to preclude skin damage.
Differences between the values of the latency period for the treated (experimental) and control groups of animals were considered significant at p ≤ 0.05.

[1] = test system: Trichophyton rubrum RCPF F 1408; assay: Antifungal susceptibility testing, T. rubrum; conditions: Trichophyton rubrum, RCPFF1408, read-out: MIC for fungi strains inhibition, T. rubrum
Text: (§2) The solvent was DMSO. […] In each test, a growth control and a sterility control were used.

[2] = test system: Neisseria gonorrhoeae ATCC 49226/NCTC 12700; assay: Antibacterial activity against Neisseria gonorrhoeae; assay type: cell-based; conditions: read-out: MIC against Neisseria gonorrhoeae
Procedure: Antibacterial activity testing was done on the growth medium Difco GC medium base (Becton Dickinson, Franklin Lakes, NJ, USA) supplemented with 1% IsoVitaleX. Dilutions of chemical compounds were carried out in the range of 250–0.12 μg/mL in 24 well sterile plates (Sarstedt, Germany). Daily cultures of control bacterial strains were identified on a VITEK MS analyzer (BioMérieux, Marcy-l’Étoile, France) by MALDI-TOF mass spectrometry. The inoculation dose of N. gonorrhoeae inoculum was 10^5 CFU/mL.

[3] = test system: Epidermophyton floccosum RCPF F 1659/17; assay: Antifungal susceptibility testing, E. floccosum; conditions: Epidermophyton floccosum, RCPFF1659/17, read-out: MIC for fungi strains inhibition, E. floccosum
Text: as §2

[4] = test system: Microsporum canis RCPF F 1643/1585; assay: Antifungal susceptibility testing, M. canis; conditions: Microsporum canis, RCPFF1643/1585, read-out: MIC for fungi strains inhibition, M. canis
Text: as §2

[5] = target: T1, equine serum butyrylcholinesterase (BChE, EC 3.1.1.8) (Equus caballus, UniProt P81908); assay: Inhibition of equine serum butyrylcholinesterase (Ellman assay); assay type: biochemical; conditions: read-out: Inhibition % at 20 µM, Equine BChE
T1 construct: equine serum butyrylcholinesterase (BChE, EC 3.1.1.8); purchased Sigma-Aldrich (Saint Louis, MO, USA); host or cells: equine serum
Text: (§1) The following enzymes were purchased from Sigma-Aldrich (Saint Louis, MO, USA): porcine liver carboxylesterase (CES, EC 3.1.1.1), human erythrocyte acetylcholinesterase (AChE, EC 3.1.1.7) and equine serum butyrylcholinesterase (BChE, EC 3.1.1.8). Substrates for CES, AChE and BChE were 4-nitrophenyl acetate (4-NPA), acetylthiocholine iodide (ATCh) and butyrylthiocholine iodide (BTCh), respectively, and the colorimetric reagent for the AChE and BChE assays was 5,5’-dithio-bis-(2-nitrobenzoic acid) (DTNB) (Sigma-Aldrich). All the kinetic experiments were performed under standard conditions, according to the protocol of IPAC RAS for a reversible inhibitors study.
Final concentrations of reactants were 0.33 mM DTNB, 0.02 unit/mL of AChE or BChE and 1 mM of substrate (ATCh or BTCh, respectively). Reagent blanks consisted of reaction mixtures without enzyme to assess non-enzymatic hydrolysis of substrates.
Test compounds were dissolved in DMSO. Reaction mixtures contained a final DMSO concentration of 2% (v/v). […] Substrate was then added and residual enzyme activity relative to an inhibitor-free control was measured using a Bio-Rad Benchmark Plus microplate reader (Marnes-la-Coquette, France).
Measurements were performed in a Bio-Rad Benchmark Plus microplate reader. Each experiment was performed in triplicate. Plots, linear regressions and values of IC50, were determined using Origin 6.1 for Windows, OriginLab (Northampton, MA, USA).

[6] = Acute toxicity evaluation in mice (ip); conditions: CD-1, mouse, in vivo, 300 mg/kg
Procedure: The toxicity evaluation was performed on CD-1 mice. […] The tested compounds in 1% starch mucilage were injected intraperitoneally into three mice. Then, animals were observed during 14 days, the number of deaths was counted and % of viability calculated.

[7] = test system: Candida albicans RCPF Y 401/NCTC 885/653; assay: Antifungal susceptibility testing, C. albicans; conditions: NCTC885, read-out: MIC for fungi strains inhibition, C. albicans
Text: as §2

[8] = ABTS radical cation scavenging activity assay; design: key to ABTS•+-scavenging activity, TEAC (trolox equivalent antioxidant capacity): TEAC = ratio of compound slope to Trolox slope vs ABTS absorbance; conditions: mean ± SEM; n.a. = inactive
Procedure: Radical scavenging activity of the compounds was evaluated by the ABTS radical cation (ABTS^•+) scavenging assay by the ability of the compounds to decolorize the ABTS^•+ solution [112] with some modifications. Trolox was used as a reference standard. Edaravone was used as the comparison compound. All tested compounds and standards were dissolved in DMSO. ABTS (2,2′-azinobis-(3-ethylbenzothiazoline-6-sulfonic acid)) was purchased from Tokyo Chemical Industry Co. Ltd. (Tokyo, Japan). Potassium persulfate (di-potassium peroxdisulfate), Trolox® (6-hydroxy-2,5,7,8-tetramethychroman-2-carboxylic acid), ascorbic acid, DMSO and HPLC-grade ethanol were obtained from Sigma-Aldrich Chemical Co. Aqueous solutions were prepared using deionized water.
The solution of ABTS^•+ was produced by mixing 7 mM ABTS aqueous solution with 2.45 mM potassium persulfate aqueous solution in equal quantities and allowing them to react for 12–16 h at room temperature in the dark. Radical scavenging capacity of the compounds was analyzed by mixing 10 μL of compound with 240 μL of ABTS^•+ working solution in ethanol (100 μM final concentration), and after 1 h of incubation at 30 °C the decrease in absorbance was measured spectrophotometrically at 734 nm using a Bio-Rad xMark microplate UV/VIS spectrophotometer (Bio-Rad, Hercules, CA, USA). The compounds were tested in the concentration range of 5 × 10^–7–4 × 10^–4 M. Ethanol blanks were run in each assay. Values were obtained from five replicates of each sample and three independent experiments.
Antioxidant activity was calculated as Trolox equivalent antioxidant capacity (TEAC values), consisting of the ratio between the slopes obtained from the linear correlation for concentrations of the tested compounds and Trolox with absorbance of ABTS radical. For the test compounds, which reduce ABTS^•+ absorbance by more than 60% at 100 µM, we also determined IC50 values as 50% reduction of the ABTS radical. The calculations were carried out using Origin 6.1 for Windows. Results were presented as mean ± SEM, calculated using GraphPad Prism version 6.05 for Windows, GraphPad Software.

[9] = target: T2, human erythrocyte acetylcholinesterase (AChE, EC 3.1.1.7) (Homo sapiens, UniProt P22303); assay: Inhibition of human erythrocyte acetylcholinesterase (Ellman assay); assay type: biochemical; conditions: read-out: Inhibition % at 20 µM, Human AChE
T2 construct: human erythrocyte acetylcholinesterase (AChE, EC 3.1.1.7); purchased Sigma-Aldrich (Saint Louis, MO, USA); host or cells: human erythrocytes
Text: as §1
Reagent blanks consisted of reaction mixtures without enzyme to assess non-enzymatic hydrolysis of substrates.
Test compounds were dissolved in DMSO. Reaction mixtures contained a final DMSO concentration of 2% (v/v). […] Measurements were performed in a Bio-Rad Benchmark Plus microplate reader. Each experiment was performed in triplicate. Plots, linear regressions and values of IC50, were determined using Origin 6.1 for Windows, OriginLab (Northampton, MA, USA).

[10] = target: porcine liver carboxylesterase (CES, EC 3.1.1.1) (Sus scrofa, UniProt Q29550); assay: Inhibition of porcine liver carboxylesterase (4-NPA colorimetric assay); assay type: biochemical; conditions: mean ± SEM, n = 3
Text: as §1
The CES (porcine liver) activity was assessed colorimetrically in 0.1 M K/Na phosphate buffer pH 8.0, 25 °C, by measuring the absorbance of 4-nitrophenol at 405 nm. Final enzyme and substrate (4-NPA) concentrations were 0.02 unit/mL and 1 mM, respectively. Reagent blanks included all constituents except enzyme.
Test compounds were dissolved in DMSO. Reaction mixtures contained a final DMSO concentration of 2% (v/v). Enzyme inhibition was first assessed at a single concentration of 20 µM for each compound after a 5 min incubation at 25 °C in three separate experiments. […] Substrate was then added and residual enzyme activity relative to an inhibitor-free control was measured using a Bio-Rad Benchmark Plus microplate reader (Marnes-la-Coquette, France).
Measurements were performed in a Bio-Rad Benchmark Plus microplate reader. Each experiment was performed in triplicate. Plots, linear regressions and values of IC50, were determined using Origin 6.1 for Windows, OriginLab (Northampton, MA, USA). Results were calculated using GraphPad Prism version 6.05 for Windows, GraphPad Software (La Jolla, CA, USA) and presented as mean ± SEM.

[11] = Oxygen radical absorbance capacity (ORAC-FL) assay; conditions: n.a. = inactive; i.t.s. = interferes with test system
Text: We evaluated the primary antioxidant activity of synthesized 4-AHPs 5–9 in comparison with their non-fluorinated analogues 9a,b using three standard tests: ABTS, FRAP (ferric reducing antioxidant power) and ORAC (oxygen radical absorbance capacity) assays. The ABTS assay evaluates the binding of a model ABTS radical cation (ABTS^•+), which is realized by the mechanism of single electron transfer (SET) and/or hydrogen atom transfer (HAT). The FRAP assay measures the ability of compounds to reduce the ferric 2,4,6-tripyridyl-s-triazine complex [Fe(TPTZ)2]^3+ to [Fe(TPTZ)2]^2+, which occurs exclusively by the SET mechanism. The ORAC-FL assay measures the oxidative degradation of the fluorescent molecule (FL – fluorescein) after being mixed with a free peroxyl radical generator such as 2,2′-azobis-(2-methylpropionamidine) dihydrochloride (AAPH) in the presence of antioxidant (tested compound). The ORAC-FL test describes the antioxidants’ ability to yield the hydrogen atom and, consequently, it is a HAT-based assay. Trolox was used in all tests as a reference antioxidant: the antioxidant activity of the test compounds was referred to the activity of Trolox. The well-known antioxidant Edaravone was also used for comparison.
The ORAC assay was performed according to the known method, with minor variations and described by us recently.

[12] = 1 h, read-out: Latent Period Prolongation, % 1 h
[13] = 2 h, read-out: Latent Period Prolongation, % 2 h

T2 sequence (P22303 32-617 isoform P22303-2 limits assumed): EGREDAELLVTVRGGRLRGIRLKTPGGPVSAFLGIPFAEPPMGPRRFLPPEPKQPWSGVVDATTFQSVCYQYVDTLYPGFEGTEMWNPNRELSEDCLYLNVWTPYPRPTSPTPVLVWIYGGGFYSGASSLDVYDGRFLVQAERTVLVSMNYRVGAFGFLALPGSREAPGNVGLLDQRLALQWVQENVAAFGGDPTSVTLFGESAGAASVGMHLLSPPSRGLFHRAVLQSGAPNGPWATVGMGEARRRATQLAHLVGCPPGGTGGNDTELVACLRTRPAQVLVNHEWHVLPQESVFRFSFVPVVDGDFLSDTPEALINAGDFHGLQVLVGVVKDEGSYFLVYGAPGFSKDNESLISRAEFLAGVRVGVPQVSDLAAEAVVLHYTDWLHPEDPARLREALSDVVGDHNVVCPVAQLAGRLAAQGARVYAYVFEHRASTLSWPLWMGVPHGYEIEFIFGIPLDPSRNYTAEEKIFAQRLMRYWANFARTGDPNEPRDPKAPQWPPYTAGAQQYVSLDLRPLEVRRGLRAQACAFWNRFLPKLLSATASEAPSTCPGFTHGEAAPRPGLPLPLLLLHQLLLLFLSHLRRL
T1 sequence (P81908 whole entry): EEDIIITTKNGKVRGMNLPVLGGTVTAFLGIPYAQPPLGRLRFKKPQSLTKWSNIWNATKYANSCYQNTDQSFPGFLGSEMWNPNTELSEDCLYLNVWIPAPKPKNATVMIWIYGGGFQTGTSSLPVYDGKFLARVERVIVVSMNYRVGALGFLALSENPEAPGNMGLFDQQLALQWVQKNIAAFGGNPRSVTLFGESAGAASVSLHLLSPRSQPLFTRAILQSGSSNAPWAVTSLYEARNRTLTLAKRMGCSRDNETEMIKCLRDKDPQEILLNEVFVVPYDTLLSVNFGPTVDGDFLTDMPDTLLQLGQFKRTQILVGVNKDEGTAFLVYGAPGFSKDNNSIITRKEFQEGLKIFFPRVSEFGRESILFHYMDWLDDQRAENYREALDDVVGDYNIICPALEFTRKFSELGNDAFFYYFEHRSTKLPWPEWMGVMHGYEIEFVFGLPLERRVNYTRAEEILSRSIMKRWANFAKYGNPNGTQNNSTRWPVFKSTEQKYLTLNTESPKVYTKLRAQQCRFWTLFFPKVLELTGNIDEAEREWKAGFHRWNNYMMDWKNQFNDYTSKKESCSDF
Sequence of porcine liver carboxylesterase (CES, EC 3.1.1.1) (Q29550 19-566): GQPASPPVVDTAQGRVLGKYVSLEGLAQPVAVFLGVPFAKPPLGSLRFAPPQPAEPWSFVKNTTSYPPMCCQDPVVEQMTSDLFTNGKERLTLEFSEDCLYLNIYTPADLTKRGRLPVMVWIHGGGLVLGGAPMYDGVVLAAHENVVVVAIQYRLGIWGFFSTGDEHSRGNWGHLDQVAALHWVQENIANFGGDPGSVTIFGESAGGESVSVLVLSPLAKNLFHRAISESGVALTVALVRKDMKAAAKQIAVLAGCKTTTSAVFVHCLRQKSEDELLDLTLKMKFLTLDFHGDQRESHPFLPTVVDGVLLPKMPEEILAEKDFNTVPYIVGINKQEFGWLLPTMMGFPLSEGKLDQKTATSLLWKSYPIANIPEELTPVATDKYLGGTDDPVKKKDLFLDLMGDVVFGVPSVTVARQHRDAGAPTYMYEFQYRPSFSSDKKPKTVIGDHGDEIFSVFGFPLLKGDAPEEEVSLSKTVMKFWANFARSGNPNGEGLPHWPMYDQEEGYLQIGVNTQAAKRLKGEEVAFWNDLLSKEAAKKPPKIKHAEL

| Structure (SMILES) | change in vivo at 15 mg/kg (Sprague-Dawley (SD) rats; [12]) [%] | change in vivo at 15 mg/kg (Sprague-Dawley (SD) rats; [13]) [%] | MIC [1] [µg/mL] | MIC [2] [µg/mL] | MIC [3] [µg/mL] | MIC [4] [µg/mL] | inhibition at 20 µM [5] [%] | survival at 14 days [6] [%] | MIC [7] [µg/mL] | ABTS•+-scavenging activity, TEAC (trolox equivalent antioxidant capacity) [8] | inhibition at 20 µM [9] [%] | analgesic activity in the hot plate test (Sprague-Dawley (SD) rats; SD rats, 1 and 2 h) | IC50 ([10]; read-out: Inhibitory Activity IC50 ± SEM, Porcine CES) [nM] | inhibition at 20 µM ([10]; 20 µM, n.a. = inactive at 20 µM) [%] | ORAC-FL (TE, antioxidant activity in Trolox equivalents) [11] |
| --- | --- | --- | --- | --- | --- | --- | --- | --- | --- | --- | --- | --- | --- | --- | --- |
| O=C1/C(=N\Nc2ccc(F)cc2)C(C(F)(F)F)=NN1c1ccccc1 [5h, (4Z)-4-[2-(4-Fluorophenyl)hydrazinylidene]-2-phenyl-5-(trifluoromethyl)-2,4-dihydro-3H-pyrazol-3-one] | 66 | 67 | > 200 | 125 (≈ 357 µM) | > 200 | > 200 | 3.2 ± 0.6 | 100 | > 200 | 0.05 ± 0.004 | 7 ± 1.2 | – | – | – | – |
| O=C1/C(=N\Nc2c(Cl)cccc2Cl)C(C(F)(F)C(F)(F)F)=NN1c1ccccc1 [6e, (4Z)-4-[2-(2,6-Dichlorophenyl)hydrazinylidene]-5-(pentafluoroethyl)-2-phenyl-2,4-dihydro-3H-pyrazol-3-one] | – | – | > 200 | 62.5 (≈ 139 µM) | 200 (≈ 443 µM) | > 200 | 6.2 ± 1.2 | 100 | > 200 | – | 6 ± 1 | inactive | – | – | – |
| O=[N+]([O-])c1ccc(OP(=O)(O)Oc2ccc([N+](=O)[O-])cc2)cc1 [BNPP, reference compound] | – | – | – | – | – | – | – | – | – | – | – | – | 1800 ± 110 | – | – |
| O=C1/C(=N\Nc2ccc(S(=O)(=O)O)cc2)C(C(F)(F)F)=NN1c1ccccc1 [5o, (4Z)-4-(2-[4-(Sulfo)phenyl]hydrazinylidene)-2-phenyl-5-(trifluoromethyl)-2,4-dihydro-3H-pyrazol-3-one] | 109 | 54 | – | 62.5 (≈ 152 µM) | – | – | 7.4 ± 1.2 | 100 | – | – | – | – | – | 5.2 ± 1 | i.t.s. |
| CCOC(=O)c1ccc(N/N=C2\C(=O)N(c3ccccc3)N=C2C(F)(F)C(F)(F)F)cc1 [6g, (4Z)-4-[2-(4-Ethoxycarbonylphenyl)hydrazinylidene]-5-(pentafluoroethyl)-2-phenyl-2,4-dihydro-3H-pyrazol-3-one] | 67 | 73 | > 200 | 15.6 (≈ 34.3 µM) | > 200 | > 200 | 4.2 ± 0.8 | 100 | > 200 | – | 6.2 ± 0.9 | – | – | – | – |
